This is an account of results in US20230104936A1, “TRPML MODULATORS” (Casma Therapeutics, Inc., priority 2019, published 2023).

Bounds are passed on as bounds.

One assay relates to TFEB. The assay is described as follows: TFEB nuclear translocation assay, HeLa wt cells. It counts as cell-based. The note with it: 2 hrs compound treatment, Table 1 does not say HeLa wt or TRPML1 KO. In short, it runs like this: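 Read-out is the ratio of TFEB immunofluorescence in the nucleus to that in a ring just outside it, measured by automated imaging. HeLa wt cells received compounds for 2 hrs at 37° C before fixation and staining; AC50 values come from this ratio.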
Turning to `CC(c1cccc(F)c1N1CCC(COC(C)(C)C)CC1)S(=O)(=O)c1ccc(S(=N)(=O)N(C)C)cc1` (single isomer, unassigned) [Compound A-962, 4-((1-(2-(4-(tert-butoxymethyl)piperidin-1-yl)-3-fluorophenyl)ethyl)sulfonyl)-N,N-dimethylbenzenesulfonimidamide], the half-maximal activity concentration (AC50) – broadly, the concentration giving half of the maximal activity seen – was no more than 2 µM.

The same assay, now with this note: Homo sapiens, HeLa, 2 h, 2 hrs compound treatment, Table 1 does not say HeLa wt or TRPML1 KO.
Compound `CN(C)S(=O)(=O)c1ccc(S(=O)(=O)Nc2ccnnc2N2CCC(c3ccc(Cl)cc3F)CC2)cc1` [Compound A-139, N4-{3-[4-(4-chloro-2-fluorophenyl)piperidin-1-yl]pyridazin-4-yl}-N1,N1-dimethylbenzene-1,4-disulfonamide] registered an AC50 of no less than 10 µM. The same measure, in the same setting: as for `CC(C(=O)N1CCN(c2ccccc2NS(=O)(=O)c2ccc(S(=O)(=O)N(C)C)cc2)CC1)C(C)(C)C` (stereo not shown) [Compound A-428, N1,N1-dimethyl-N4-{2-[4-(2,3,3-trimethylbutanoyl)piperazin-1-yl]phenyl}benzene-1,4-disulfonamide], the figure is no more than 2 µM; as for `O=S(=O)(Nc1cccc(Cl)c1N1CCCCC1)c1ccc(C2(C(F)(F)F)N=N2)cc1` [Compound A-749, N-[3-chloro-2-(piperidin-1-yl)phenyl]-4-[3-(trifluoromethyl)-3H-diazirin-3-yl]benzene-1-sulfonamide], 2.01 to 8 µM. On the same count and under the same terms, as for `Cn1ccc(S(=O)(=O)Nc2ccccc2N2CCN(c3ccc(Cl)cc3F)CC2)n1` [Compound A-21, N-{2-[4-(4-chloro-2-fluorophenyl)piperazin-1-yl]phenyl}-1-methyl-1H-pyrazole-3-sulfonamide], the figure is 2.01 to 8 µM; as for `COc1ccc(S(=O)(=O)Nc2ccccc2N2CCC(c3ccc(Cl)cc3F)CC2)cc1` [Compound A-99, N-{2-[4-(4-chloro-2-fluorophenyl)piperidin-1-yl]phenyl}-4-methoxybenzene-1-sulfonamide], no more than 2 µM.

`CC(=O)Nc1cccc(NS(=O)(=O)c2ccc(S(=O)(=O)N(C)C)cc2)c1N1CCCCC1` [Compound A-827, N-{3-[4-(dimethylsulfamoyl)benzenesulfonamido]-2-(piperidin-1-yl)phenyl}acetamide] showed an AC50 of no less than 10 µM. Compound `CN(C)S(=O)(=O)c1ccc(S(=O)(=O)Nc2ccccc2N2CCC(O)(c3ccccc3)CC2)cc1` [Compound A-148, N4-[2-(4-hydroxy-4-phenylpiperidin-1-yl)phenyl]-N1,N1-dimethylbenzene-1,4-disulfonamide] had a concentration at half-maximal activity (AC50) of no more than 2 µM. Still for that read-out and setting: as for `O=S(=O)(Cc1ccon1)Nc1cccc(Cl)c1N1CCOCC1` [Compound A-365, N-[3-chloro-2-(morpholin-4-yl)phenyl]-1-(1,2-oxazol-3-yl)methanesulfonamide], the figure is no less than 10 µM. `CN(C)S(=O)(=O)c1ccc(S(=O)(=O)Nc2ccccc2N2CCN(C(=O)[C@@H]3C[C@H]3C(C)(F)F)CC2)cc1` (racemic) [Compound A-463, rac-N4-(2-{4-[(1R,2R)-2-(1,1-difluoroethyl)cyclopropanecarbonyl]piperazin-1-yl}phenyl)-N1,N1-dimethylbenzene-1,4-disulfonamide] gave a concentration at half-maximal activity (AC50) of 2.01 to 8 µM.

The compound `COCC1(C)CCN(c2ccccc2NS(=O)(=O)c2cccc(C3CC3)c2)CC1` [Compound A-643, 3-cyclopropyl-N-{2-[4-(methoxymethyl)-4-methylpiperidin-1-yl]phenyl}benzene-1-sulfonamide] registered a concentration at half-maximal activity (AC50) of no more than 2 µM.

Compound `COCC1(C)CCN(c2ccc(F)cc2NS(=O)(=O)c2ccc(S(=O)(=O)N(C)C)cc2)CC1` [Compound A-695, N4-{5-fluoro-2-[4-(methoxymethyl)-4-methylpiperidin-1-yl]phenyl}-N1,N1-dimethylbenzene-1,4-disulfonamide] came in with a half-maximal activity concentration (AC50) of no more than 2 µM. In turn, `COCC1(C)CCN(c2ccccc2NS(=O)(=O)c2ccc3c(c2)CC(C)(C)O3)CC1` [Compound A-613, N-{2-[4-(methoxymethyl)-4-methylpiperidin-1-yl]phenyl}-2,2-dimethyl-2,3-dihydro-1-benzofuran-5-sulfonamide] came in with an AC50 of no more than 2 µM.
